Reference: patent US9422308B2, “Derivatives of docosahexaenoylethanolamide and uses thereof” (The United States of America, as represented by the …, priority 2012, dated 2016)
“And” between values parts separate entries of the source, which are not always exact repeats. Identical values can stand only once.

Key:
cortical neurons = experiment: neurite growth of embryonic mouse neurons (total neurite length/neuron, MAP2 immunostaining); type: cell-based; details: for effect with respect to cortical neurite growth as compared to DHA: FIGS. 1, 2; for dosage at which activity is exhibited as compared to DHA and synaptamide: dosages 10^-5 nM to 10 nM, FIG. 1
Experimental: To obtain embryonic mouse neurons for analysis, pregnant female mice were killed by cervical dislocation after exposure to CO2 inhalation. Embryonic neurons were prepared from E18 or P0 mouse hippocampi or cortex and cultured as described previously (Calderon and Kim, J. Neurochem., 90(4):979-88 (2004), errata in J Neurochem., September; 90(6):1540 (2004)), with slight modification. Briefly, hippocampi or cotices were dissected and dissociated by a method using either 0.25% trypsin (Gibco Invitrogen Corporation, Grand Island, N.Y.) in Hank's balanced salt solution (HBSS) or papain (20-30 U/mL) in dissociation media containing cysteine at 37° C. for 15 min. After the dissociation solution was aspirated off, cells were washed with same volume of HBSS, suspended in neurobasal medium (Gibco) containing 2% B27 supplement (Gibco), 1% glutamine/glutamax mix (1:4) (Gibco), 100 U/ml penicillin (Gibco) and 100 μg/ml streptomycin (Gibco), and seeded on poly-D-lysine chambered slides (Lab-Tek, Naperville, Ill.) at a density of 30,000 cells/cm^2. On the second day after seeding, the cells were treated with fatty acids, synaptamide or one of Compounds 1-50 for 48 h. Docosahexaenoic acid (DHA) and oleic acid (OA) were complexed with fatty acid-free bovine serum albumin (BSA; Sigma, St Louis, Mo.) in the presence of α-tocopherol (Sigma) under an argon atmosphere and darkness to prevent oxidation of the fatty acids. The mixture was mixed with fresh Neurobasal medium containing B27 supplement, glutamine/glutamax mix and antibiotics. Final concentrations of α-tocopherol and BSA in the culture medium were 40 μM and 0.01%, respectively. Alternatively, DHA, OA, synaptamide, or one of Compounds 1-50 were dissolved in DMSO and applied directly together with α-tocopherol. In such case, the final concentration of DMSO is less than 0.005%. All stock solutions were aliquoted under argon and stored at −70° C.
Cells were fixed with […] (Sigma) in PBS (pH 7.4) for 30 min. After permeabilization with 0.1% Triton X-100 (Sigma), cells were blocked for 1 h at 37° C. with PBS containing 10% goat serum (Gibco), and then incubated with the primary antibody against microtubule-associated protein (MAP2, mouse monoclonal 1:250; Sigma). After washing with PBS, cells were incubated with the corresponding Cy2-, Cy3-conjugated secondary antibody (Jackson Immunoresearch Laboratories Inc., West Grove, Pa.). For the nuclear staining, 0.06% 4,6-Diamidino-2-Phenylindole (Sigma) was used. After immunostaining, images were collected using an inverted motorized 1×81 Olympus (Melville, N.Y.) and the neurite length was analyzed with Metamorph software (Molecular Devices Corporation, Downingtown, Pa.). To minimize bias, neurons were evaluated blindly without the knowledge of sample identity. Four to six fields/well were chosen at random and only non-clustered neurons were evaluated to ensure the precision of the measurements. From each well, over 100 neurons were evaluated at 20× magnification for total neurite length/neuron. The data were obtained from triplicate wells and the experiments were repeated at least three times.
FIG. 2 provides graphical results of the data shown in Table 2, expressed as total neurite length per neuron. FIG. 3 provides graphical results of these experiments for compounds 11-50 (having designations as provided in Table 1, above), expressed as relative neurite length as compared to untreated controls. FIG. 4 provides graphical results of these experiments for compounds 1-10 (having designations as provided in Table 1, above), as applied to hippocampal neurons.
An additional assay was performed in which Compounds (A8), 4(A10), and 7(A9) were applied at varying dosages (from 10^−5 nM to 10 nM; 10^−5 nM, 10^−4 nM, 10^−2 nM, 0.1 nM, 1 nM, and 10 nM) as compared to DHA, synaptamide, and oleic acid. Neurite growth was measured at each dosage. Results of this assay are provided at FIG. 1.

FAAH = target: T1, FAAH (Homo sapiens, UniProt O00519); experiment: time course FAAH enzyme assay; type: in vitro ADME; details: Conc. 1 mM, 0.1 U of FAAH, 37° C., pH=9.0
T1 sequence (O00519 1-579): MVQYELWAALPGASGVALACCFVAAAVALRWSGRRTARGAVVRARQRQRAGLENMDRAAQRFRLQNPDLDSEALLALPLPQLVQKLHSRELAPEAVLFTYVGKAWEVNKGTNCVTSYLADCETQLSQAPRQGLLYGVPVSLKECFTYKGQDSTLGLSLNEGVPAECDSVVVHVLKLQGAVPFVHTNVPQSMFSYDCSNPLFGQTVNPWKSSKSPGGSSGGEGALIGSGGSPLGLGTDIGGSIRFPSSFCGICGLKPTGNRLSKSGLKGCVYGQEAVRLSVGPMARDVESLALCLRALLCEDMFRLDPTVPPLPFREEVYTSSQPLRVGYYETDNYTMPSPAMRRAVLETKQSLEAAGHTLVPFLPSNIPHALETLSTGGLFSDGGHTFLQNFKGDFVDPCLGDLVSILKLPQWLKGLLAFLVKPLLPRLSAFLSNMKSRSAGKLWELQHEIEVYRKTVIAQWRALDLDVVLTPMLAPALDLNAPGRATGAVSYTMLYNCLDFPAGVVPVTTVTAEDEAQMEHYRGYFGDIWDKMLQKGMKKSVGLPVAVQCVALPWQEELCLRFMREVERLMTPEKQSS
Experimental: Method development: The signal was optimized for each compound by ESI positive or negative ionization mode. A MS2 SIM scan was used to optimize the precursor ion and a product ion analysis was used to identify the best fragment for analysis and to optimize the collision energy.
Analysis: Samples were analyzed by LC/MS/MS using a API 3000 coupled with an Shimadzu HPLC and a CTC PAL chilled autosampler, all […] controlled by Analyst software (ABI). After separation on a C18 reverse phase HPLC column (Agilent, Waters, or equivalent). Mobile phase A was 0.1% AcOH in water. Mobile phase B was 0.1% AcOH in methanol. The flow rate was 0.6 mL/min. The gradient program included a 0.5 min hold at 30% B (the starting conditions), followed by a gradient to 100% B over 2.5 min and a 1 min hold at 100% B. The column was then returned to starting conditions and equilibrated over 1.25 min.
Assay Protocol: Assays were performed at 37° C. at pH=9.0 and involved the use of 0.1 U of FAAH. […] Reaction was terminated after an appropriate time by using protein precipitation treatment with acetonitrile (3:1, v/v).

[1] = cortical neurons, 10 nM (FIG. 2), 48 h

## CC/C=C\C/C=C\C/C=C\C/C=C\C/C=C\C/C=C\CCC(=O)O [DHA, Docosahexaenoic acid, reference compound]
Cortical neurons; cortical neurons, DHA 100 nM (FIG. 2), 48 h
  Neurite Length/Neuron (mean): 14.5 μm

## CC/C=C\C/C=C\C/C=C\C/C=C\C/C=C\C/C=C\CCC(=O)NCCCCO [Compound 2, (4Z,7Z,10Z,13Z,16Z,19Z)—N-(4-hydroxybutyl)docosa-4,7,10,13,16,19-hexaenamide]
Cortical neurons; [1]
  Neurite Length/Neuron (mean): 6.9 μm

## CC/C=C\C/C=C\C/C=C\C/C=C\C/C=C\C/C=C\CCC(=O)NCCN(C)C [Compound 5, (4Z,7Z,10Z,13Z,16Z,19Z)—N-(2-(dimethylamino)ethyl)docosa-4,7,10,13,16,19-hexaenamide]
Cortical neurons; [1]
  Neurite Length/Neuron (mean): 6.7 μm

## CC/C=C\C/C=C\C/C=C\C/C=C\C/C=C\C/C=C\CCC(=O)NCCOC [Compound 6, (4Z,7Z,10Z,13Z,16Z,19Z)—N-(2-methoxyethyl)docosa-4,7,10,13,16,19-hexaenamide]
Cortical neurons; [1]
  Neurite Length/Neuron (mean): 9.1 μm

## CC/C=C\C/C=C\C/C=C\C/C=C\C/C=C\C/C=C\CCC(=O)NCCN1CCOCC1 [Compound 4, (4Z,7Z,10Z,13Z,16Z,19Z)—N-(2-morpholinoethyl)docosa-4,7,10,13,16,19-hexaenamide]
Cortical neurons; [1]
  Neurite Length/Neuron (mean): 20.8 μm
Cortical neurons; cortical neurons
  effect with respect to cortical neurite growth as compared to DHA: superior effect
Cortical neurons
  dosage at which activity is exhibited as compared to DHA and synaptamide: activity at significantly lower dosages

## CC/C=C\C/C=C\C/C=C\C/C=C\C/C=C\C/C=C\CCC(=O)N[C@@H](C)CO [Compound 9, (4Z,7Z,10Z,13Z,16Z,19Z)—N—((S)-1-hydroxypropan-2-yl)docosa-4,7,10,13,16,19-hexaenamide]
Cortical neurons; [1]
  Neurite Length/Neuron (mean): 9.6 μm

## CC/C=C\C/C=C\C/C=C\C/C=C\C/C=C\C/C=C\CCC(=O)NC(C)(C)CO [Compound 8, (4Z,7Z,10Z,13Z,16Z,19Z)—N-(1-hydroxy-2-methylpropan-2-yl)docosa-4,7,10,13,16,19-hexaenamide]
Cortical neurons; [1]
  Neurite Length/Neuron (mean): 4.5 μm

## CC/C=C\C/C=C\C/C=C\C/C=C\C/C=C\C/C=C\CCC(=O)NCCO [Synaptamide, Docosahexaenoylethanolamide]
FAAH; 0 min
  % remaining: 100%
FAAH; 30 min
  % remaining: 5%
FAAH; 60 min
  % remaining: 1%
Cortical neurons; [1]
  Neurite Length/Neuron (mean): 29.3 μm
Cortical neurons; cortical neurons, 10 nM (FIG. 2), 48 h, three individual values
  Neurite Length/Neuron, individual values: 33.1 μm and 29.2 μm and 25.5 μm

## CCCCC/C=C\C/C=C\C/C=C\C/C=C\CCCC(=O)NCCO [AEA, anandamide]
FAAH; 0 min
  % remaining: 74%
FAAH; 30 min
  % remaining: 1%
FAAH; 60 min
  % remaining: 1%

## CC/C=C\C/C=C\C/C=C\C/C=C\C/C=C\C/C=C\CCC(=O)NCCCO [Compound 3, (4Z,7Z,10Z,13Z,16Z,19Z)—N-(3-hydroxypropyl)docosa-4,7,10,13,16,19-hexaenamide]
Cortical neurons; [1]
  Neurite Length/Neuron (mean): 3.8 μm

## CC/C=C\C/C=C\C/C=C\C/C=C\C/C=C\C/C=C\CCC(=O)NCCc1ccccc1 [Compound 7, (4Z,7Z,10Z,13Z,16Z,19Z)—N-phenethyldocosa-4,7,10,13,16,19-hexaenamide]
Cortical neurons; [1]
  Neurite Length/Neuron (mean): 41.8 μm
Cortical neurons; cortical neurons
  effect with respect to cortical neurite growth as compared to DHA: superior effect
Cortical neurons
  dosage at which activity is exhibited as compared to DHA and synaptamide: activity at significantly lower dosages

## CC/C=C\C/C=C\C/C=C\C/C=C\C/C=C\C/C=C\CCC(=O)N[C@H](C)CO [Compound 10, (4Z,7Z,10Z,13Z,16Z,19Z)—N—((R)-1-hydroxypropan-2-yl)docosa-4,7,10,13,16,19-hexaenamide]
Cortical neurons; [1]
  Neurite Length/Neuron (mean): 9.5 μm
